In patent publication US5491170A, “β-carboxy sulfonamide ACAT inhibitors” (priority 1994, dated 1996):

Key:
male Sprague-Dawley rats = experiment: APCC: in vivo screen, total cholesterol in rats fed a high fat, high cholesterol diet; parameters: species or system rat (male Sprague-Dawley); conditions: Rattus norvegicus, po, 16 h, 30 mg/kg by gavage, high cholesterol diet (5.5% peanut oil, 1.5% cholesterol, 0.5% cholic acid), dosed 4 PM, sacrificed 8 AM, read-out: APCC (% change TC): percent change in total cholesterol from control animals given vehicle and diet only
Excerpt: In an in vivo screen designated APCC, male Sprague-Dawley rats (200-225 g body weight) were randomly divided into treatment groups and dosed at 4 PM with either vehicle (CMC/Tween) or suspensions of invention compounds in vehicle. The normal chow diet was then replaced with a high fat, high cholesterol diet (5.5% peanut oil, 1.5% cholesterol, and 0.5% cholic acid). The rats consumed this diet ad libitum during the night and were sacrificed at 8 AM to obtain blood samples for cholesterol analysis using standard procedures. Statistical differences between mean cholesterol values for the same vehicle were determined using analysis of variance followed by Fisher's least significant test. The results of this trial for representative compounds of the present invention also appear in Table I as the percent change in total cholesterol (% TC) from control animals given vehicle and diet only. All compounds in the APCC test reported in Table 1 were administered by gavage at 30 mg/kg.

[1] = molecular target: T1, acyl-CoA: cholesterol acyltransferase (ACAT) (Rattus norvegicus, UniProt Q7TQM4); experiment: LAI: in vitro inhibition of ACAT (acylation of cholesterol by radiolabeled oleic acid) in rat liver microsomes; assay type: biochemical
T1 construct: tissue preparation containing rat liver microsomes (designated LAI); from tissue; host or cells: rat liver microsomes
T1 sequence (Q7TQM4 1-524): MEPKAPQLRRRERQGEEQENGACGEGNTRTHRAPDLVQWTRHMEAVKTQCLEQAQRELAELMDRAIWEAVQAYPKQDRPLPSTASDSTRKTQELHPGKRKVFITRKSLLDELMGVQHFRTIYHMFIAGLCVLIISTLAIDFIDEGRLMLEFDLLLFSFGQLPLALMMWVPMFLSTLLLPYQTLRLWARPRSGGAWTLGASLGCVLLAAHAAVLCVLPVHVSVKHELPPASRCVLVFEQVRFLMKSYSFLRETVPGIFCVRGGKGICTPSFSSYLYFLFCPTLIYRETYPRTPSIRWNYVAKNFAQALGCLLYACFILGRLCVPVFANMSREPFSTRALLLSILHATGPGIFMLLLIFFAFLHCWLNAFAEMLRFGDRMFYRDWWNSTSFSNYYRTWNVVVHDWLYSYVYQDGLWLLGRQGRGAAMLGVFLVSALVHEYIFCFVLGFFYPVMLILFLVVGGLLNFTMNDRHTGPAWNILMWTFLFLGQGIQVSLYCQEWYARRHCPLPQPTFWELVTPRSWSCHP
Experimental: The ability of representative compounds of the present invention to inhibit ACAT was measured using an in vitro test more fully described in F. J. Field and R. G. Salone, Biochemica et Biophysica Acta, 712:557-570 (1982). The test assesses the ability of a test compound to inhibit the acylation of cholesterol by oleic acid by measuring the amount of radiolabeled cholesterol oleate formed from radiolabeled oleic acid in a tissue preparation containing rat liver microsomes (designated LAI).

| SMILES | change in vivo at 30 mg/kg (male Sprague-Dawley rats) [%] | IC50 [1] [nM] |
| --- | --- | --- |
| CC(C)c1cc(C(C)C)c(OC(=O)CS(=O)(=O)Nc2c(C(C)C)cccc2C(C)C)c(C(C)C)c1 [Example 1, 2,4,6-Triisopropylphenyl(2,6-diisopropylphenylsulfamoyl)acetate] | -19 | – |
| CCCCCCCCCCCCn1nnc(NC(=O)CS(=O)(=O)Nc2c(C(C)C)cccc2C(C)C)n1 [Example 2, 2-(2,6-Diisopropyl-phenylsulfamoyl)-N-(dodecyl-2-H-tetrazol-5-yl)-acetamide] | -50 | 1900 |
| CCCCCCCCN(CCCCCCCC)C(=O)CS(=O)(=O)Nc1c(C(C)C)cccc1C(C)C [Example 3, 2-(2,6-Diisopropylphenylsulfamoyl)-N,N-dioctylacetamide] | -19 | – |
| CC(C)c1cccc(C(C)C)c1NC(=O)CS(=O)(=O)Nc1c(C(C)C)cccc1C(C)C [Example 4, N-(2,6-Diisopropylphenyl)-2-(2,6-diisopropylphenylsulfamoyl)-acetamide] | -51 | – |
| CCCCCCCCCCCCNC(=O)CS(=O)(=O)Nc1c(C(C)C)cccc1C(C)C [Example 5, 2-(2,6-Diisopropylphenylsulfamoyl)-N-dodecyl-acetamide] | -29 | – |
| CCCCCCNC(=O)CS(=O)(=O)Nc1c(C(C)C)cccc1C(C)C [Example 6, 2-(2,6-Diisopropylphenylsulfamoyl)-N-hexyl-acetamide] | -16 | > 5000 |
| CC(C)c1cccc(C(C)C)c1NS(=O)(=O)CC(=O)N(Cc1ccccc1)C(C)C [Example 7, N-Benzyl-N-isopropyl-2-(2,6-diisopropylphenylsulfamoyl)acetamide] | -31 | – |
| CC(C)c1cccc(C(C)C)c1NS(=O)(=O)CC(=O)NC(c1ccccc1)c1ccccc1 [Example 8, 2-(2,6-Diisopropylphenylsulfamoyl)-N-diphenylmethylacetamide] | – | > 1000 |
| CC(C)c1cccc(C(C)C)c1NS(=O)(=O)CC(=O)NCC(c1ccccc1)C1CCCC1 (centres unmarked) [Example 9, 2-(2,6-Diisopropylphenylsulfamoyl)-N-(2-cyclopentyl-2-phenylethyl)-acetamide] | – | > 1000 |
| CCCCCCCCCCCCSC(=O)CS(=O)(=O)Nc1c(C(C)C)cccc1C(C)C [Example 10, (2,6-Diisopropylphenylsulfamoyl)-thio-acetic Acid S-dodecyl Ester] | -71 | – |
| CCCCCCCCSC(=O)CS(=O)(=O)Nc1c(C(C)C)cccc1C(C)C [Example 11, (2,6-Diisopropylphenylsulfamoyl)-thio-acetic Acid S-octyl Ester] | -32 | – |
| CC(C)c1cccc(C(C)C)c1NS(=O)(=O)CC(=O)Sc1c(C(C)C)cccc1C(C)C [Example 12, (2,6-Diisopropylphenylsulfamoyl)-thioacetic Acid 2,6-Diisopropylphenyl Ester] | -16 | > 5000 |
| CCCCCCCCCCCCCCSC(=O)CS(=O)(=O)Nc1c(C(C)C)cccc1C(C)C [Example 15, (2,6-Diisopropylphenylsulfamoyl)-thio-acetic Acid S-tetradecyl Ester] | -23 | – |
| CCCCCCCCCCCCSC(=O)CS(=O)(=O)Nc1ccc(F)cc1F [Example 16, (2,4-Diifluorophenylsulfamoyl)-thioacetic Acid S-dodecyl Ester] | -37 | 230 |
| CCCCCCCCCCCCSC(=O)CS(=O)(=O)Nc1c(OC)cc(OC)cc1OC [Example 17, (2,4,6-Trimethoxyphenylsulfamoyl)-thioacetic Acid S-dodecyl Ester] | -3 | 570 |
| CCCCCCCCCCCCCCCCCCSC(=O)CS(=O)(=O)Nc1c(C(C)C)cccc1C(C)C [Example 18, (2,6-Diisopropylphenylsulfamoyl)-thioacetic Acid S-octadecyl Ester] | -35 | > 5000 |
| Cc1cccc(C)c1SC(=O)CS(=O)(=O)Nc1c(C(C)C)cccc1C(C)C [Example 19, (2,6-Diisopropylphenylsulfamoyl)-thioacetic Acid S-2,6-dimethylphenyl Ester] | 3 | > 5000 |
| CCCCCCCCCCCCCCOC(=O)CS(=O)(=O)Nc1c(C(C)C)cccc1C(C)C [Example 20, (2,6-Diisopropylphenylsulfamoyl)-acetic Acid Tetradecyl Ester] | -45 | – |
| CCOC(=O)CS(=O)(=O)Nc1c(C(C)C)cccc1C(C)C [Example 21, (2,6-Diisopropylphenylsulfamoyl)-acetic Acid Ethyl Ester] | 2 | > 1000 |
| CC(C)c1cccc(C(C)C)c1NS(=O)(=O)CC(=O)Oc1c(C(C)C)cccc1C(C)C [Example 22, 2,6,-Diissoproplphenyl(2,6-diisopropylphenylsulfamoyl)acetate] | -7 | 17600 |
| CCCCCCCCOC(=O)CS(=O)(=O)Nc1c(C(C)C)cccc1C(C)C [Example 23, (2,6-Diisopropylphenylsulfamoyl)-acetic Acid Octyl Ester] | -4 | > 1000 |
| CCCCCCCCCCOC(=O)CS(=O)(=O)Nc1c(C(C)C)cccc1C(C)C [Example 24, (2,6-Diisopropylphenylsulfamoyl)-acetic Acid Decylester] | -16 | > 1000 |
| COc1cc(OC)c(OC(=O)CS(=O)(=O)Nc2c(C(C)C)cccc2C(C)C)c(OC)c1 [Example 25, (2,6-Diisopropylphenylsulfamoyl)-acetic Acid 2,4,6-trimethoxyphenyl Ester] | -6 | > 1000 |
| CCCCCCOC(=O)CS(=O)(=O)Nc1c(C(C)C)cccc1C(C)C [Example 26, (2,6-Diisopropylphenylsulfamoyl)-acetic Acid Hexyl Ester] | -5 | > 1000 |
| COc1cc(OC)c(NC(=O)CS(=O)(=O)Nc2c(OC)cc(OC)cc2OC)c(OC)c1 [Example 27, N-(2,4,6-trimethyoxyphenyl)-2-(2,4,6-trimethoxy-phenylsulfamoyl)-acetamide] | 5 | 7600 |
| CCCCCCCCCCCCC(C)OC(=O)CS(=O)(=O)Nc1c(C(C)C)cccc1C(C)C (centres unmarked) [Example 28, (2,6-Diisopropylphenylsulfamoyl)-acetic Acid 1-methyltridecyl Ester] | -39 | – |
| CCCCCCCCCCCCOC(=O)CS(=O)(=O)Nc1c(C(C)C)cccc1C(C)C [Example 29, (2,6-Diisopropylphenylsulfamoyl)-acetic Acid Dodecylester] | -34 | – |
| CC(C)c1cccc(C(C)C)c1NS(=O)(=O)CC(=O)O [Example 30, (2,6-Diisopropylphenylsulfamoyl)-acetic Acid] | 3 | > 1000 |
| CC(C)c1cc(C(C)C)c(NS(=O)(=O)CC(=O)Oc2c(C(C)C)cccc2C(C)C)c(C(C)C)c1 [Example 31, (2,4,6-Triisopropylphenylsulfamoyl)-acetic Acid, 2,6-Diisopropyl Ester] | -29 | > 1000 |
| CC(CCc1ccccc1)COC(=O)CS(=O)(=O)Nc1c(C(C)C)cccc1C(C)C (centres unmarked) [Example 40, (2,6-diisopropylphenylsulfamoyl)-acetic acid, (2-methyl-4-phenylbutyl) ester] | -32 | 4200 |
